{"source": "patent US12728120B2", "about": "“Prevention or treatment of brain disease and adverse effects of cholinesterase inhibitors” (DR. NOAH BIOTECH INC., priority 2021, dated 2026)", "key": {"[1]": {"tested_on": "cerebral infarction-reperfusion model in Sprague-Dawley rats", "test": "Rotarod test in MCAO-reperfusion stroke model", "format": "in vivo", "settings": "for Rotarod score (fall latency normalized to day 1), mean value: I.V. daily, FIG. 15", "method": "The Rotarod test was performed on the 1, 3, 7, 14, and 21 days after 45 minutes-MCAO (middle cerebral artery occlusion)-reperfusion modelling to induced ischemia (Brain Stroke). […] The animal was carefully placed on a rotating rod (JD-A-07RA5, BS Technolab Inc., Korea) and the time (second) that animal was fallen was measured. The speed of rotating rod was increased from 4 rpm to 40 rpm for 300 second. […] For rotarod latency test, Nested one-way ANOVA and Two-way ANOVA was used to analyze significance between the groups on each day. Statistical analysis was performed using Prism 9 (GraphPad Software Inc., San Diego, CA, USA) and statistical significance was set at a P-value of less than 0.05."}, "PSD-95": {"tested_on": "PSD-95", "test": "PSD-95 expression (western blot) in primary cultured neurons", "format": "cell-based, mice", "settings": "mouse primary neuro-glia culture, 4 days treatment, β-actin normalized; FIG. 14B", "method": "(§1) To evaluate the synaptic plasticity, primary neuro-glia culture was prepared from cortices of embryonic day 16 C57/BL6 mice. Cells were collected by mechanical dissection and chemical dissociation with trypsin and DNase treatment and cultured in Neurobasal (NB) and MEM media supplemented with 1% B-27, 2 mM L-glutamine, 5% Fetal Bovine Serum, 5% Horse Serum, 1×MEM-NEAA (non-essential amino acids), and 1% Penicillin-Streptomycin (PS). Cells were cultured in Poly-D-Lysine+Laminin-coated 6-well plates at 2×10^6 cells/well in growth media. After 3 days in vitro (DIV 3), media was changed to NB media supplemented with 2% B-27, 2 mM L-glutamine, and 1% PS. […] Protein was resolved by 8% SDS-PAGE electrophoresis, transferred to polyvinylidene difluoride membranes and blocked with 5% non-fat dry milk for 1 hour at RT. Membrane was immunoblotted using following antibodies; primary antibody: PSD-95 (Abcam, ab18258, 1:2,000), phospho-CREB (Millipore, #06-519, 1:2,000), β-actin (Cell signaling, #3700, 1:3,000), and secondary antibody:HRP-conjugated anti-mouse IgG (AbFrontier, LF-SA8001, 1:5,000), HRP-conjugated anti-rabbit IgG (AbFrontier, LF-SA8002, 1:5,000). Signal was visualized by chemiluminescence methods using ECL solution and imaged using ImageQuant LAS 500 system. […]"}, "pCREB": {"tested_on": "pCREB", "test": "pCREB expression (western blot) in primary cultured neurons", "format": "cell-based, mice", "settings": "mouse primary neuro-glia culture, 4 days treatment, β-actin normalized; FIG. 14C", "method": "as §1"}, "neuronal cells (SH-SY5Y)": {"tested_on": "neuronal cells (SH-SY5Y)", "test": "ROS production (DCF-DA) in H2O2-treated SH-SY5Y cells", "format": "cell-based", "settings": "100 μM H2O2 24 hours, DONE alone 5 uM, NAC alone 5 uM, NDC = DONE 2.5 uM + NAC 2.5 uM, FIG. 3", "method": "SH-SY5Y cells were plated in 96 well plates at 2×10^5 cells/well in DMEM supplemented with 10% fetal bovine serum (FBS; YOUNG IN, US-FBS-500) and 1% penicillin-streptomycin (P-S; Gibco, 15070063). Six hours after seeding, SH-SY5Y cells were treated with 100 μM H2O2 for 24 hours (Sigma, #323381) followed by incubation with DONE alone, NAC alone, and combination of DONE and NAC. After incubation, ROS activity in the cell was measured by adding DCF-DA (Thermo, #D399) containing media. Absorbance was measured using a Synergy HTX Multi-Mode reader (Biotek) with 465 nm excitation and 540 nm emission. Measured fluorescence was normalized to control as follows: (drug-treated group OD−DCF-DA alone O.D)/(control O.D−DCF alone O.D)*100."}, "microglia cells (BV2)": {"tested_on": "microglia cells (BV2)", "test": "NO assay (Griess reagent) in LPS-treated BV2 microglial cells", "format": "cell-based", "settings": "donepezil HCl alone, antioxidant alone or combination, FIG. 8", "method": "Briefly, BV2 microglial cells were plated in 96-well plates at 2×10^5 cells/well in DMEM high glucose medium (Welgene, LM001-05) supplemented with 10% fetal bovine serum (FBS; YOUNG IN, US-FBS-500) and 1% penicillin-streptomycin (P-S; Gibco, 15070063).\nAfter incubation, NO levels were quantified from half of the cell media using a Griess reagent assay kit (Promega, G2930). Colorimetric changes in the media and Griess reagent mixture were measured using a Synergy HTX Multi-Mode reader (Biotek) at 540 nm. All data were analyzed using the GraphPad Prism 9 software. Statistical significance was assessed using a one-way ANOVA or two-way ANOVA followed by Dunnett's post-hoc analysis unless otherwise noted. All data are presented as the mean±SEM, and significance was set at P<0.05. […] (*P<0.05, **P<0.01, ***P<0.001, ****P<0.0001, one-way ANOVA)."}, "neural progenitor cells": {"tested_on": "neural progenitor cells", "test": "Number of viable cells (cytotoxicity) in neural progenitor cells", "settings": "with donepezil, NAC or their combination; FIG. 13B"}}, "note": "Structures can show the parent of a compound that is named as a salt."}
{"compound": "COc1cc2c(cc1OC)C(=O)C(CC1CCN(Cc3ccccc3)CC1)C2", "note": "(stereo not shown) [Donepezil-HCl, donepezil]", "values": [{"measurement": "Rotarod score normalized to VEH (100%)", "setting": "[1]; day 3 after MCAO", "value": 93.92, "unit": "%"}, {"measurement": "Rotarod score (fall latency normalized to day 1), mean value", "setting": "[1]; day 3 after MCAO", "value": 15.77}, {"measurement": "Rotarod score (fall latency normalized to day 1), mean value", "setting": "[1]; day 7 after MCAO", "value": 30.61}, {"measurement": "Rotarod score normalized to VEH (100%)", "setting": "[1]; day 14 after MCAO", "value": 81.08, "unit": "%"}, {"measurement": "Rotarod score (fall latency normalized to day 1), mean value", "setting": "[1]; day 14 after MCAO", "value": 39.30}, {"measurement": "Rotarod score normalized to VEH (100%)", "setting": "[1]; day 21 after MCAO", "value": 77.68, "unit": "%"}, {"measurement": "Rotarod score (fall latency normalized to day 1), mean value", "setting": "[1]; day 21 after MCAO", "value": 49.53}, {"measurement": "PSD-95 expression, mean value normalized to untreated control (CTL 1.0)", "setting": "PSD-95", "value": 1.20}, {"measurement": "pCREB expression, mean value normalized to untreated control (CTL 1.0)", "setting": "pCREB", "value": 0.92}, {"measurement": "ROS, mean value normalized to control (CTL 100%)", "setting": "neuronal cells (SH-SY5Y)", "value": 76.52, "unit": "%"}]}
{"compound": "COc1ccc([C@H]2OC[C@H]3[C@@H]2CO[C@H]3c2ccc(O[C@@H]3O[C@H](CO)[C@@H](O)[C@H](O)[C@H]3O)c(OC)c2)cc1OC", "note": "[Forsythin]", "values": [{"measurement": "NO, mean value relative to LPS (100%)", "setting": "microglia cells (BV2)", "value": 89.97, "unit": "%"}]}
{"compound": "O=C(O)CCCCC1CCSS1", "note": "(stereo not shown) [Thioctic acid]", "values": [{"measurement": "NO, mean value relative to LPS (100%)", "setting": "microglia cells (BV2)", "value": 68.45, "unit": "%"}]}
{"compound": "CO[C@H]1C[C@@H]2CC[C@@H](C)[C@@](O)(O2)C(=O)C(=O)N2CCCC[C@H]2C(=O)O[C@H]([C@H](C)C[C@@H]2CC[C@@H](O)[C@H](OC)C2)CC(=O)[C@H](C)/C=C(\\C)[C@@H](O)[C@@H](OC)C(=O)[C@H](C)C[C@H](C)/C=C/C=C/C=C/1C", "note": "[rapamycin]", "values": [{"measurement": "cytotoxicity on addition of rapamycin", "setting": "neural progenitor cells", "value": "did not induce cytotoxicity"}]}
